We go through 6 molecules from paper PMC11768059, “Guanidines Conjugated with Cell-Penetrating Peptides: A New Approach for the Development of Antileishmanial Molecules” (Molecules, 2025).

“And” between values parts separate entries of the source, which are not always exact repeats. Equal values may be shown once. Residues, ends and D or L forms follow the SMILES beside them. *: point of attachment. X1 = O=C(/N=C(/NCc1ccc(C(=O)*)cc1)Nc1ccc(Br)cc1)c1ccccc1; code Z = not defined here

The nature of data set [1]: cytotoxic activity on peritoneal macrophages. The settings on record: Swiss, mouse. Type of data set: cell-based, Swiss mice. As for the experimental part:
For the anti-promastigote assays, L. infantum and L. amazonensis cultures in the exponential growth phase were transferred to 96-well plates at a final concentration of 1 × 10^7 promastigotes mL^−1. […] After 72 h, viable promastigotes were determined using the MTT method.
(§1) Anti-promastigote and anti-amastigote assays, the infection index (percentage of infected cells * number of intracellular parasites/numbers of infected cells), and their cytotoxic activity were conducted as previously described.

In data set [2] the test system is L. amazonensis promastigotes. As to the kind of experiment: microbe, parasite or virus in culture. The conditions noted are these: for IC50: read-out: Promastigote IC50 L. amazonensis in active serum. An excerpt: (§2) Several strategies were employed to increase the stability of peptides, including the incorporation of non-natural amino acids, modifications of the N- and/or C-terminal, cyclization, the use of non-peptide structures (peptidomimetics), and multimerization.

In data set [3] the test system is L. infantum promastigotes. Put plainly: microbe, parasite or virus in culture. The settings on record: for IC50: read-out: Promastigote IC50 L. infantum in active serum.
Description: as §2

For data set [4], the target named is T1, cysteine protease LmCPB2.8∆CTE (CPB) (Leishmania mexicana, UniProt P36400). The settings on record: irreversible inhibitor ref 13; cited from earlier work.
T1 sequence (P36400 126-343): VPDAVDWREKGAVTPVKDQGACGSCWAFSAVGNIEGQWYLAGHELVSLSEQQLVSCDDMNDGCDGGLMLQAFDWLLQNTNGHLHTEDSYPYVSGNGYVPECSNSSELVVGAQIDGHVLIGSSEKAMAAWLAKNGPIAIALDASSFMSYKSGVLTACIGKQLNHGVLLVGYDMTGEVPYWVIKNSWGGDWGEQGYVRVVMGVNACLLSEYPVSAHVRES
Data set [5] relates to L. amazonensis promastigotes. As to the kind of experiment: anti-promastigote assay (MTT) against L. amazonensis. It counts as cell-based, Leishmania amazonensis. The conditions noted are these: 72 h. As for the experimental part:
(§3) L. amazonensis promastigotes (MPRO/BR/1972/M1841-LV-79) were grown in LIT culture medium, while L. infantum promastigotes (MNYC/BZ/62/M379) were cultivated in 199 culture medium (Sigma-Aldrich, St. Louis, MO, USA) supplemented with 10% heat-inactivated fetal bovine serum (FBS; Gibco/Invitrogen) and in 10% urine, at 28 °C, until reaching the mid-log phase of growth. Macrophages were sourced from the peritoneal cavity of Swiss mice, using the methodology outlined by de Almeida et al. 2017 [60]. For the anti-promastigote assays, L. infantum and L. amazonensis cultures in the exponential growth phase were transferred to 96-well plates at a final concentration of 1 × 10^7 promastigotes mL^−1. Subsequently, the tested compounds were added at concentrations ranging from 1.28 to 100 µmol L^−1 to assess their anti-promastigote activity. After 72 h, viable promastigotes were determined using the MTT method.
as §1

Data set [6] deals with L. amazonensis intracellular amastigotes. Type of data set: cell-based, Leishmania amazonensis. As for the experimental part: as §1
The subject of data set [7] is L. infantum promastigotes. Put plainly: anti-promastigote assay (MTT) against L. infantum. Type of data set: cell-based, Leishmania infantum. The settings on record: 72 h. As for the experimental part: as §3, §1
Data set [8] has as its system L. infantum intracellular amastigotes. It counts as cell-based, Leishmania infantum. As for the experimental part:
as §1

The target in data set [9] is T1, cysteine protease LmCPB2.8∆CTE (CPB). Put plainly: cysteine protease (CPB) enzyme inhibition assay. Type of data set: biochemical, Leishmania major. The settings on record: for inhibition at 20 µM: read-out: CPB Inhibitory Activity 20 μM, 20 μM. As for the experimental part:
CPB inhibition experiments were performed as described previously by Moreira et al. 2022 [13]. The results were expressed as mean ± standard deviation of two independent replicates.

A further data set addresses cathepsin B. On the set-up: method as in PMID 12574338. The conditions noted are these: cited from earlier work.
The conditions of data set [10]: eukaryotic membrane mimetic POPC/cholesterol, 50 μM.
Description: As illustrated in Figure 5 and Figure 6, the analyte in question (peptide, bioconjugate, or guanidine) was added within 120 s, and after an interval of 360 s, the behavior of the membrane mimetic was reanalyzed. After this time, 10% triton was added so that the vesicles could completely release the carboxyfluorescein.
Large unilamellar vesicles (LUVs) composed of POPC (1-palmitoyl-2-oleoyl-sn-glycero-3-phosphatidylcholine) and cholesterol (Chol) (4:1) or POPC, POPS (1-palmitoyl-2-oleoyl-sn-glycero-3-serine), and ergosterol (Erg) (8:1:1) were prepared according to the methods described by Lorenzón et al. 2014 [62].
Setting [11] is: peritoneal macrophages, Table 1 (L. amazonensis series).
Setting [12] is: peritoneal macrophages, Table 2 (L. infantum series).
Where [13] appears, read: culture medium with active fetal bovine serum.

The CC50 is the concentration giving 50% cytotoxicity. Broadly, the IC50 is the concentration needed to halve the response being measured. By Ki is commonly meant a dissociation constant, usually derived from enzyme kinetics or from competition with a known ligand.

On to `C[C@@H]1[C@H](O)[C@@H](C)/C=C/C=C/C=C/C=C/C=C/C=C/C=C/[C@H](O[C@@H]2O[C@H](C)[C@@H](O)[C@H](N)[C@@H]2O)C[C@@H]2O[C@](O)(C[C@@H](O)C[C@@H](O)[C@H](O)CC[C@@H](O)C[C@@H](O)CC(=O)O[C@H]1C)C[C@H](O)[C@H]2C(=O)O` [Amp B, Amphotericin B, reference compound], for which the cytotoxic concentration (CC50) in data set [1] (setting [11]) amounted to 99.8 ± 3.7 µM. Besides, the IC50 in [2] (Leishmania amazonensis) was found to be 0.5 ± 0.1 µM; in [3] (Leishmania infantum), 0.3 ± 0.1 µM.
Turning to `CC(C)C[C@H](NC(=O)[C@H]1O[C@@H]1C(=O)O)C(=O)NCCCCN=C(N)N` (relative stereo) [Compound E64, L-trans-epoxysuccinyl-leucylamido-(4-guanidino)butane], the “inhibition of Leishmania CPB (potency range)” value in data set [4] is “nanomolar range”.
Consider `N=C(N)NCCC[C@H](NC(=O)[C@H](CCCNC(=N)N)NC(=O)[C@H](CCC(N)=O)NC(=O)[C@H](CCCNC(=N)N)NC(=O)[C@H](CCCNC(=N)N)NC(=O)[C@H](CCCCN)NC(=O)[C@H](CCCCN)NC(=O)[C@H](CCCNC(=N)N)NC(=O)CNC(=O)[C@@H](N)Cc1ccc(O)cc1)C(=O)O` [TAT, reference compound] (H-YGRKKRRQRR-OH; N-terminus assumed), for which the “Promastigote IC50” value in data set [5] is “no activity”; in [7] it was “no leishmanicidal activity”. For the same molecule, the CC50 was above 1000 µM in data set [1] (setting [11]) and above 2000 µM in data set [1] (setting [12]). Also, the “Amastigote IC50” value is recorded as “no activity” in data set [6] and “no leishmanicidal activity” in data set [8]. Further, in [2] (setting [13]), the “Promastigote IC50 L. amazonensis in active serum” value was “did not display anti-promastigote activity”. Moreover, the “Promastigote IC50 L. infantum in active serum” value in data set [3] (setting [13]) is given as “did not display anti-promastigote activity”. Moreover, the inhibition at 20 µM in [9] was 9.42 ± 0.01%.
For the molecule “Z-Arg-Leu-Val-Gly-Ile-Val-Ome ({code Z}-RLVGIV-OMe; reading uncertain; also: printed as Z-Arg-Leu-Val-Gly-Ile-Val-Ome)”, the inhibition constant (Ki) on cathepsin B is 88 pM.
On to `O=C(O)c1ccc(CN/C(=N/C(=O)c2ccccc2)Nc2ccc(Br)cc2)cc1` [GVL1, (Z)-4-((2-benzoyl-3-(4-bromophenyl)guanidino)methyl) benzoic acid], for which the values for the CC50 in [1] (Table 1 (L. amazonensis series)) and in data set [1] (setting [12]) were above 1000 µM and above 2000 µM, respectively. Besides, the values for the IC50 in [7] (Leishmania infantum), in data set [2] (Leishmania amazonensis) and in [3] (Leishmania infantum) were 50.8 ± 2.2 µM, 65 ± 2.4 µM and 50 ± 1.2 µM, respectively.
On to `N=C(N)NCCC[C@H](NC(=O)[C@H](CCCNC(=N)N)NC(=O)[C@H](CCC(N)=O)NC(=O)[C@H](CCCNC(=N)N)NC(=O)[C@H](CCCNC(=N)N)NC(=O)[C@H](CCCCN)NC(=O)[C@H](CCCCN)NC(=O)[C@H](CCCNC(=N)N)NC(=O)CNC(=O)[C@H](Cc1ccc(O)cc1)NC(=O)c1ccc(CN/C(=N/C(=O)c2ccccc2)Nc2ccc(Br)cc2)cc1)C(=O)O` [GVL1-TAT] (X1-YGRKKRRQRR-OH), for which the IC50 was 5.3 µM and 5.32 µM in [5]; 0.8 ± 0.06 µM in data set [6] (read-out: Amastigote IC50); 1.2 ± 0.3 µM in data set [7]; 3.8 ± 0.3 µM in data set [8] (read-out: Amastigote IC50); 2.6 ± 0.8 µM in data set [2] (setting [13]); 1.2 ± 0.3 µM in data set [3] (setting [13]). The IC50 in [9] was 3.78 ± 0.1 µM. Moreover, the values for the CC50 in data set [1] (setting [11]) and in data set [1] (setting [12]) were above 1000 µM and above 2000 µM, respectively. Also, the inhibition at 20 µM in data set [9] is around 92%. Also, the “permeabilization of vesicles (carboxyfluorescein release)” value in data set [10] is reported as “no damage was observed in the vesicles”.
